In ChEMBL document CHEMBL1135164, “New ketosteroids from the red alga Hypnea musciformis” (Bioorg Med Chem Lett, 2002):

Target: T1, Chymotrypsin-like elastase family member 2A (Sus scrofa) (UniProt P08419)
T1 sequence (whole entry): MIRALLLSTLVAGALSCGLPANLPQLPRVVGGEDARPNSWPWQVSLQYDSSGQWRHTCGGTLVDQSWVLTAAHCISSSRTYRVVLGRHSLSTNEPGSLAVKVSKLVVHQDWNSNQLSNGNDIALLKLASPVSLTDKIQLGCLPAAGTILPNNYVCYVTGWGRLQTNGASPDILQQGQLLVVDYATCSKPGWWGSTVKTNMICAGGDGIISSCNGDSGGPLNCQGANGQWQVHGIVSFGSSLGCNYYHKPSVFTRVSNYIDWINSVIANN
Assay: Effective dose for inhibition of the porcine Pancreatic elastase

- ED50: 100 µM
SMILES: CC(C)C/C=C/[C@](C)(O)[C@H]1CC[C@H]2[C@@H]3CC(=O)[C@H]4CC(=O)CC[C@]4(C)[C@H]3CC[C@@]21C
